One experiment addresses T1, human IL-8 (Homo sapiens, UniProt P10145).
T1 sequence (P10145 21-99): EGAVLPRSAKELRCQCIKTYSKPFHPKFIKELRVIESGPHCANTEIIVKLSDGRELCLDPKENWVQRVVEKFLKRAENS
As to the kind of experiment: IL-8 induced migration of DMSO treated HL-60 cells (chemotaxis). The class given is cell-based. The following applies: 50 μg/ml, IL-8 20 ng/ml. The procedure:
Chemokines known to play an important role in mediating the inflammation associated with COPD include IL-8, MCP-1 and MIP-1α (Barnes 2004, supra). […] These experiments were performed using DMSO treated human promyelocytic HL-60 cells. These cells were derived from a patient with acute promyelocytic leukemia. The cells were treated with DMSO (1.2%) for 4 days before being used in the experiments. The chemotaxis assays were performed in 96-well Costar chemotaxis plates consisting of a bottom chamber to which was added the human IL-8 (+/−inhibitor) and then cells in RPMI and 1% v/v FCS were added to a top chamber and the plate was incubated at 37° C. for 1 hour to allow cells to move from the top chamber into the bottom. The number of cells migrating into the bottom chamber was quantified by labeling with AQUEOUS ONE (20 μl/well) for 1.75 hours before absorbance at 490 nm is read. IL-8 was used at a final concentration of 20 ng/ml and the inhibitors were the sulfated xylan pentasaccharide (10 and 50 μg/ml) and pentosan polysulfate (10 and 50 μg/ml). Cell migration is compared with that seen with no IL-8 or with IL-8 and no inhibitor.

The test system of experiment [1] is male C57Bl/6J mice exposed to cigarette smoke. In words: Mouse model of emphysema/COPD, acute cigarette smoke exposure. It counts as in vivo. The following applies: PPS inhaled 30 minutes before. The procedure:
A mouse model of emphysema was used. Acute and chronic exposure of mice to cigarette smoke lead to lung responses that in part mimic the inflammatory and structural changes observed in COPD. In this model male C57Bl/6J mice are subjected to acute and chronic smoke exposure, with normal room air being the control situation. In the acute study mice were exposed to either room air or to the smoke of five cigarettes (approximately 12 mg of tar and 0.9 mg of nicotine) for 20 minutes. In the chronic study mice were exposed to either room air or to the smoke of three cigarettes/day for 5 days/week for 6 months. The 4 groups of mice were then further divided so that mice within each group also received PPS via an inhaled route.
In the acute exposure groups of mice pentosan polysulfate was given 30 minutes before exposure to cigarette smoke. Assessment of the efficacy of the drug for mice in the acute exposure groups involved assessment of trolox equivalent anti-oxidant capacity of the bronchoalveolar lavage fluid (BALF) at the end of smoke exposure. The BALF was examined for cytokines and chemokines that are associated with an inflammatory response. The levels of these agents were determined at 4 hours after exposure and at 24 hours after cigarette smoke exposure. A range of cytokines and chemokines was measured. […] A differential cell count of the cells in the BALF was also determined.

In the next experiment the target is T2, IL-4 (Homo sapiens, UniProt P05112).
T2 construct: made in house
T2 sequence (P05112 25-153): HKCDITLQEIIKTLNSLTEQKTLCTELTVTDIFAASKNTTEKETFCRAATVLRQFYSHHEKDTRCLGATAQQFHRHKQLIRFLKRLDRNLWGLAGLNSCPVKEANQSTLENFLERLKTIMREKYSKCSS
In words: IL-4 dependent TF-1.8 cell proliferation (luciferase). It counts as cell-based. From the text: PPS inhibited the proliferation of a human IL-4 responsive cell line. This occurs at very low doses and is not due to a toxic effect of the pentosan polysulfate because other, similarly sulfated polysaccharides, at the same concentrations of IL-4 and polysaccharide have no effect. These experiments utilize the TF-1.8 cells. TF-1.8 cells are a subclone of the TF-1 cells that have been selected for growth in IL-4 or IL-5. TF-1 cells were originally established from a bone marrow sample from a person with severe pancytopenia. These cells are dependent on IL-3 or GM-CSF for long term growth and are responsive to a variety of cytokines including IL-4, […].
TF-1.8 cells have been transfected with the firefly luciferase gene contained in the expression vector, pPGK-puromycin-luciferase (Coombe et al, 1998, supra). […] The cells are counted with a Coulter Z2 Particle Counter and Size Analyzer (Coulter Electronics, England) and routinely 2.5×10^4 cells are added to microplate wells that contain either no IL-4 (negative control) or various dilutions of IL-4. When the effect of PPS, or other sulfated polysaccharides is to be measured, the wells also contain various concentrations of these molecules. […]
The size of the sulfated xylose polysaccharides is also an important component of its anti-IL-4 activity. […] Light emissions are detected on a Victor 1420 Multi-label counter (Wallac, Turku, Finland). […]

Data on one substance can be found in patent US20180078576A1, “SULPHATED XYLANS FOR TREATMENT OR PROPHYLAXIS OF RESPIRATORY DISEASES” (Paradigm Biopharmaceuticals Limited, priority 2007, published 2018).

For Pentosan polysulfate [PPS], at human IL-8, the “Inhibition of cell migration triggered by IL-8” value was 74%. Moreover, in experiment [1], the “Cellular infiltrate into BALF” value is “decreased” and the “Numbers of neutrophils in BALF” value is recorded as “significantly attenuated”. On IL-4 (dose-response, FIG. 5), the “Inhibition of IL-4 dependent proliferation of TF-1.8 cells (in words)” value was “markedly inhibits”. Besides, the “Percentage Inhibition of IL-4 induced TF-1.8 cell proliferation” value at IL-4 (inhibitor 5.0 μg/ml, IL-4 2.5 ng/ml, 48 hours) is listed as 58%.
